PMC11546719, “Immune Modulatory Profile of the Pateamines PatA and Des-Methyl Des-Amino PatA” (International Journal of Molecular Sciences, 2024)

Assays:
M2 MdMs = assay: Energy metabolism (Seahorse OCR/ECAR) in M2 MdMs; format: cell-based, human; conditions: 24 h, 0.5-5 nM
Description: (§1) The determination of the energy metabolism was performed as described previously. Briefly, for the analysis of the extracellular acidification rate (ECAR) and the oxygen consumption rate (OCR) for human B cells, Tcells, M1 MdMs and M2 MdMs, the Seahorse XFe96 FluxPak (Agilent, Waldbronn, Germany) was used as recommended by the manufacturer. MdMs were polarized to M1 or M2 MdMs in the presence of PatA (0.5, 2.5, 5 nM), DMDA (0.5, 2.5, 5 nM) or vehicle (DMSO) for 48 h or 24 h, respectively. T cells were activated in the presence of PatA (0.25, 0.5 nM), DMDA (0.25, 0.5 nM), silvestrol or DMSO. B cells were activated in the presence of PatA (0.25, 0.5 nM), DMDA (0.25, 0.5 nM), silvestrol (5 nM) or rapamycin (10 ng/mL positive control). Cells were washed with Seahorse XF RPMI medium pH 7.4 (Agilent, Waldbronn, Germany) and OCR and ECAR were measured as octuplicates for a period of 160 min using the Seahorse XFe96 Analyzer (Agilent, Waldbronn, Germany) and analyzed by Wave Software 2.6.3.8 (Agilent, Waldbronn, Germany). The relative values were calculated by relating the OCR or ECAR values obtained after 50 min to the values of the vehicle control (not stimulated).

M1 MdMs [1] = assay: Polarization of MdMs to M1 MdMs (zombie staining, flow cytometry, ELISA/CBA); format: cell-based, human; conditions: for Surface marker expression (CD86, CD80, TREM2, HLA-DR, CD206, CD14, CD163) / Apoptosis (zombie staining) / Inflammatory environment: release of cytokines (IL-6, IL-8, CCL2, CCL17, CL18, IFN-γ) and PGE2: M1 MdMs; for Surface marker expression (CD86, CD80, TREM2, HLA-DR, CD206, CD14, CD163) / Apoptosis (zombie staining): 48 h; for Surface marker expression (CD86, CD80, TREM2, HLA-DR, CD206, CD14, CD163): flow cytometry; for Apoptosis (zombie staining): IFN-γ polarization, 0.5-5 nM; for Inflammatory environment: release of cytokines (IL-6, IL-8, CCL2, CCL17, CL18, IFN-γ) and PGE2: supernatant, ELISA or CBA; for Effect on the release of inflammatory markers, M1 MdM: summary table
Description: The differentiation of human monocytes to macrophages (MdMs) was performed as previously described. Briefly, 0.5 × 10^6 CD14^+ cells/well were pretreated with different concentrations of PatA and DMDA or vehicle (DMSO) for 30 min. After pre-incubation, differentiation was initiated by the addition of 10 ng/mL GM-CSF for M1 MdMs or 50 ng/mL M-CSF for M2 MdMs and incubated for 7 days.
The polarization of MdMs to M1 or M2 MdMs was performed as previously described. M1 and M2 MdM polarization was conducted in separate experiments. Briefly, M1 MdMs were polarized in presence of PatA (0.5, 2.5, 5 nM), DMDA (0.5, 2.5, 5 nM) or vehicle (DMSO) with 20 ng/mL human IFN-γ for 48 h. M2 MdMs were polarized in presence of PatA (0.5, 2.5, 5 nM), DMDA (0.5, 2.5, 5 nM) or vehicle (DMSO) with 10 ng/mL human IL-4 for 24 h.
Surface marker analysis was performed as described previously. Briefly, 1.5–2 × 10^5 cells of each sample were blocked with human FcR Blocking Reagent (15 min, 4 °C). A Zombie Aqua™ Fixable Viability Kit (1:500 dilution, BioLegend, San Diego, CA, USA) was used according to the manufactory protocol to discriminate living and dead cells. Afterwards, samples were stained with a mixture of different surface marker antibodies (15 min, 4 °C) and measured with MACSQuant® Analyzer 10 flow cytometer. For M1-/M2-MdMs anti-CD86, anti-CD14, anti-HLA-DR, anti-CD206, anti-CD80, anti-TREM2 and anti-CD163 were used. For T cells, anti-CD69, anti-CD54, anti-CD49a, anti-CD18, anti-CD134, anti-CD154, anti-CD3 and anti-CD25 were analyzed. For B cells, anti-CD27, anti-CD19 and anti-CD38 were applied. For T cell and B cell proliferation assay, freshly isolated T and B cells were stained with CTV and detected using flow cytometry. Naïve B cells were characterized as CD19^+CD27^lowCD38^med, memory B cells as CD19^+CD27^med CD38^low and plasma cells as CD27^+CD38^+ cells. M1 MdMs and M2 MdMs cell population was gated using FSC/SSC channel. T cells were gated as CD3^+CD25^+ positive cells. The geometric mean of the fluorescent intensity was calculated using FlowJo software v10 (Treestar, Ashland, […], USA). Fold induction of surface marker expression was calculated using the DMSO-treated cells as the control.
For determination of cytokine concentrations in the supernatant of humane immune cells, cytometric bead array (BD Biosciences, Heidelberg, Germany) for IL-10, IL-17, IL-8, IL-6, IFN-γ and CCL2 was used. For the detection of CCL18, CCL17, IgG, IgA and PGE2, an ELISA was performed. The cytometric bead arrays and the ELISAs were performed according to the protocol of the supplier.

M1 MdMs [2] = assay: Energy metabolism (Seahorse OCR/ECAR) in M1 MdMs; format: cell-based, human; conditions: 48 h, 0.5-5 nM
Description: as §1

[3] = test system: Salmonella typhimurium strain TA98; assay: Ames MPF test, strain TA98; format: cell-based; conditions: TA98, with and without S9, 10-250 nM
Description: The Ames MPF 98/100 test (Xenometrix, Allschwil, Switzerland) was performed as recommended by the supplier and recently published. Briefly, two bacteria strains incapable of producing histidine (Salmonella typhimurium strains TA98 and TA100) were used. Liver homogenate S9 was applied to simulate the metabolic conversions of PatA and DMDA. After exposure to increasing concentrations of PatA (0, 10, 50, 250 nM), DMDA (0, 10, 50, 250 nM) or with positive controls (2 μg/mL for 2-NF (TA98), 2.5 μg/mL for 4-NQO (TA100), 63 μg/mL (TA100 with SF9) and 25 µg/mL (TA98 with SF9) for 2-AA), the cultures were diluted in pH indicator medium lacking histidine and incubated for two days. Cells that had undergone reversion to amino acid prototrophy grew into colonies and bacterial metabolism reduced the pH of the medium, changing the color of that well. Revertant colony numbers of each well were counted and related to the negative control (DMSO). The experiment was conducted once in triplicate. The Ames MPF calculation sheet provided by Xenometrix was used for data analysis. Fold induction over the baseline was calculated as the ratio of the mean number of positive wells to the baseline. The baseline was obtained by adding one standard deviation to the mean number of positive wells of the solvent control. Compounds with mutagenic potential were characterized by revertant numbers above the baseline.

T cells = assay: Energy metabolism (Seahorse OCR/ECAR) in T cells; format: cell-based, human; conditions: 5 days, PatA, DMDA 0.25-0.5 nM, silvestrol 5 nM
Description: as §1

Row | Structure (SMILES) | Energy metabolism: glycolysis (ECAR) and oxidative phosphorylation (OCR) (M2 MdMs) | Surface marker expression (CD86, CD80, TREM2, HLA-DR, CD206, CD14, CD163) (M1 MdMs [1]) | Apoptosis (zombie staining) (M1 MdMs [1]) | Inflammatory environment: release of cytokines (IL-6, IL-8, CCL2, CCL17, CL18, IFN-γ) and PGE2 (M1 MdMs [1]) | Effect on the release of inflammatory markers, M1 MdM (M1 MdMs [1]) | Energy metabolism: glycolysis (ECAR) and oxidative phosphorylation (OCR) (M1 MdMs [2]) | Mutagenic potential (Ames test) [3] | Energy metabolism: glycolysis (ECAR) and oxidative phosphorylation (OCR) (T cells)
1 | CC(/C=C/C(C)=C/[C@@H]1Cc2nc(cs2)[C@@H](C)C[C@@H](N)CC(=O)O[C@@H](C)C/C(C)=C/C=C\C(=O)O1)=C\CN(C)C [PatA, pateamine A] | reduced glycolysis and oxidative phosphorylation | no significant effect on surface marker expression | Neither PatA nor DMDA induced apoptosis | did not affect the inflammatory environment | No effect | reduced glycolysis and oxidative phosphorylation | negative in all Ames mutagenic assays | did not alter the energy metabolism
2 | CC(/C=C/C(C)=C/[C@@H]1Cc2nc(cs2)CCCCC(=O)O[C@@H](C)C/C(C)=C/C=C\C(=O)O1)=C\CN(C)C [DMDA, des-methyl des-amino pateamine A] | had no effect on energy consumption | only reduced CD14 expression | Neither PatA nor DMDA induced apoptosis | did not affect the inflammatory environment | No effect | had no effect on energy consumption | negative in all Ames mutagenic assays | did not alter the energy metabolism
